Measured values: patent EP4793271A1, “NEUROPROTECTIVE AGENT” (National Center of Neurology and Psychiatry, priority 2023, dated 2025)
pIC50: −log10 of the molar value.

Key:
hSARM1 = target: T1, hSARM1 (Homo sapiens, UniProt Q6SZW1); test: Human SARM1 activity measurement in HEK293 cells transiently transfected with ΔN-hSARM1 (PC6 fluorescent probe); assay type: cell-based; parameters: expressed in transfected cells; host or cells: HEK293, pcDNA3 expression vector; details: inhibition rate; compound 30 µM; PC6 50 µM; HEK293 cells expressing ΔN-hSARM1; approximately 48 hours from transfection; read-out: Evaluation on hSARM1 inhibitory
T1 sequence (Q6SZW1 28-724): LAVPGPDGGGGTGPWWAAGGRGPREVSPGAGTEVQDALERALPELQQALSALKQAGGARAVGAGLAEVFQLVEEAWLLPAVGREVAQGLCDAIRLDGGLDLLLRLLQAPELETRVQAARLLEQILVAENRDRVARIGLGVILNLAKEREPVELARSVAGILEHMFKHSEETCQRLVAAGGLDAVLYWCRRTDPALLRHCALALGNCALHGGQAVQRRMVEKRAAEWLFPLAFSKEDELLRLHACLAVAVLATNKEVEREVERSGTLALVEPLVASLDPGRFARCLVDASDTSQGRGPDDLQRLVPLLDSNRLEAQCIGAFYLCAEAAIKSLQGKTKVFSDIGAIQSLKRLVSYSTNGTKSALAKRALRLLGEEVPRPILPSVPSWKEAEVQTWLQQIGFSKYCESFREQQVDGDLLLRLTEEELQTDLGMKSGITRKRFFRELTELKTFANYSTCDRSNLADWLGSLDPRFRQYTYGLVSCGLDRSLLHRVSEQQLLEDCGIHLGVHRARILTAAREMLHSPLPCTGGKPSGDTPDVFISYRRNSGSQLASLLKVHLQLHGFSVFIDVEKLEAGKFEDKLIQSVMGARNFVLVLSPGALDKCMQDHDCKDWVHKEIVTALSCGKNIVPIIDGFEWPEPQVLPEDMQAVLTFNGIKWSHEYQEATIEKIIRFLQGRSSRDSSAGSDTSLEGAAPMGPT
How it was run: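 HEK293 cells in nicotinamide-free DMEM with 5 μM nicotinamide, transiently transfected with mitochondrial-targeting-deleted ΔN-hSARM1; PC6 base-exchange fluorescent probe (50 μM) plus compound (30 μM) added ~8 h post-transfection. Fluorescence (ex 405/em 525 nm) read ~48 h from transfection; inhibition % versus transfected DMSO control, untransfected background subtracted.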

[1] = system: primary cultured cells of mouse fetus-derived dorsal root ganglia (DRGs); test: Suppression of axonal degeneration after axotomy in DRG explant culture; assay type: cell-based; details: minimum concentration at which axonal degeneration was suppressed (DI 0.3 or less), 24 hours after axotomy; for minimal effective concentration: Mus musculus, read-out: Evaluation on protection against degeneration
How it was run: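 Embryonic ICR mouse DRG explants were cultured 7–8 days in nicotinamide-free neuronal medium with NGF, then axotomized by removing the cell bodies. Compound (100 pM–10 µM final, 0.1% DMSO) was added within 30 min, and neurites were imaged 24 h later. The result is the lowest concentration giving degeneration index ≤0.3.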

[2] = target: T2, nicotinamide phosphoribosyl transferase (NAMPT) (Homo sapiens, UniProt P43490); test: NAMPT activity measurement (NMN fluorescence detection); assay type: biochemical; details: NAMPT recombinant protein, 10 µM Nam; for pIC50: read-out: Evaluation on NAMPT inhibitory
T2 construct: purchased Medical & Biological Laboratories Co., Ltd. (MBL)
T2 sequence (P43490 whole entry, species assumed): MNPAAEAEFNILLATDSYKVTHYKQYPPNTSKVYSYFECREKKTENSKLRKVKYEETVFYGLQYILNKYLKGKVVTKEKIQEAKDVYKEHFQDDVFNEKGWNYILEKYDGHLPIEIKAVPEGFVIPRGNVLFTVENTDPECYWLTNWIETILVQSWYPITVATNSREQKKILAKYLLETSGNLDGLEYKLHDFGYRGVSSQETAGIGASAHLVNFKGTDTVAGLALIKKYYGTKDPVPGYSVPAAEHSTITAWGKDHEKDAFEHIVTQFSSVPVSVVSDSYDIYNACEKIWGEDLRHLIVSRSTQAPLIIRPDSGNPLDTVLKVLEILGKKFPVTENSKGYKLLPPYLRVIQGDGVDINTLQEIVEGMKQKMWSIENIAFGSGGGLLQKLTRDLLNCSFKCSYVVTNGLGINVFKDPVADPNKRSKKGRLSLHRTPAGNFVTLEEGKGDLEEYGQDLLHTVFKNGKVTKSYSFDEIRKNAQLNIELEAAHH
Protocol: The compound of the present invention was evaluated for the ability to influence the activity of nicotinamide phosphoribosyl transferase (NAMPT) which is an enzyme that metabolizes nicotinamide (Nam), not the target SARM1.
The enzymatic reaction of NAMPT was carried out by adding NAMPT recombinant protein (manufactured by Medical & Biological Laboratories Co., Ltd. (MBL)) to a reaction solution containing the substrate Nam, phosphoribosylpyrophosphate (PRPP), ATP, and the like (composition: […] (pH = 7.4), 2 µM ATP, 0.5 µM PRPP, 0.02% BSA, 2 µM DTT, 1.2 µM MgCl2, and 10 µM Nam). The amount of the reaction product NMN was detected by detecting the fluorescent signal of a fluorescent substance obtained through the reaction of 2-acetylbenzofuran with NMN using SpectraMax M2 (Molecular Devices) (excitation: 421 nm, fluorescence: 480 nm) (Moriya et al, Chemical Communications 2013, 49 11500). The test compound was added at final concentrations of 10 µM, 3 µM, 1 µM, 300 nM, 100 nM, 30 nM, 10 nM, and 3 nM to the NMN synthesis reaction system described above. The NMN-derived fluorescent signal was normalized against a control group and plotted as the function of the test compound concentrations, and the compound was evaluated for its NAMPT inhibitory effect by calculating IC50.
The IC50 value was evaluated as ∘ for ≥1 µM and as Δ for ≥0.1 µM.

Row | SMILES | inhibition at 30 µM (hSARM1) [%] | Evaluation on NAMPT inhibitory [2] | pIC50 [2] | minimal effective concentration [1] [µM] | Evaluation on protection against degeneration [1]
1 | O=C(NCc1ccc(NC(=O)c2ccccc2)nc1)c1cnc2ccccc2c1 [Compound 140] | > 10 | ○ |  | 0.1 to 1 | 
2 | Cc1ccc(CC(=O)Nc2ccc(CNC(=O)c3cccnc3)cn2)cc1 [Compound 143] | > 75 |  | ≤ 7.00 | ≤ 0.01 | 
3 | O=C(Cc1ccc(F)cc1)Nc1ccc(CNC(=O)c2cccnc2)cn1 [Compound 144] | > 75 |  | ≤ 7.00 | ≤ 0.01 | 
4 | O=C(NCc1ccc(CNC(=O)c2cccnc2)nc1)c1cccnc1 [Compound 146] | > 50 | ○ |  | 0.01 to 0.1 | 
5 | O=C(NCc1cccc(CNC(=O)c2cccnc2)n1)c1ccccc1 [Compound 149] | > 25 | ○ |  | 0.1 to 1 | 
6 | O=C(NCc1cccc(CNC(=O)c2cccnc2)n1)c1cccnc1 [Compound 150] | > 25 | ○ |  | 0.1 to 1 | 
7 | O=C(NCc1cccc(CNC(=O)c2cccnc2)n1)c1ccncc1 [Compound 151] | > 25 | ○ |  | 0.1 to 1 | 
8 | O=C(NCc1ccc(CNC(=O)c2ccccc2)nc1)c1cccnc1 [Compound 153] | > 75 | ○ |  | 0.01 to 0.1 | 
9 | N#Cc1ccc(CC(=O)Nc2ccc(CNC(=O)c3cccnc3)cn2)cc1 [Compound 154] | > 75 |  | ≤ 7.00 | ≤ 0.01 | 
10 | CCCC(=O)Nc1ccc(CNC(=O)c2cccnc2)cn1 [Compound 158] | > 25 | ○ |  | ≤ 0.01 | 
11 | CCCCC(=O)Nc1ccc(CNC(=O)c2cccnc2)cn1 [Compound 159] | > 50 | ○ |  | ≤ 0.01 | 
12 | CCCCCC(=O)Nc1ccc(CNC(=O)c2cccnc2)cn1 [Compound 160] | > 75 |  | ≤ 7.00 | ≤ 0.01 | 
13 | CCC(C)C(=O)Nc1ccc(CNC(=O)c2cccnc2)cn1 (stereo not drawn) [Compound 161] | > 10 | ○ |  | ≤ 0.01 | 
14 | CC(C)CC(=O)Nc1ccc(CNC(=O)c2cccnc2)cn1 [Compound 162] | > 25 | ○ |  | ≤ 0.01 | 
15 | CCC(CC)C(=O)Nc1ccc(CNC(=O)c2cccnc2)cn1 [Compound 163] | > 25 | ○ |  |  | A (A ≤ 0.01 µM)

The next lines start with results.

Row | inhibition at 30 µM (hSARM1) [%] | Evaluation on NAMPT inhibitory [2] | pIC50 [2] | SMILES | minimal effective concentration [1] [µM] | Evaluation on protection against degeneration [1]
16 | > 75 |  | ≤ 7.00 | CC(C)CCC(=O)Nc1ccc(CNC(=O)c2cccnc2)cn1 [Compound 164] | ≤ 0.01 | 
17 | > 75 | ○ |  | CCC(C)CC(=O)Nc1ccc(CNC(=O)c2cccnc2)cn1 (stereo not drawn) [Compound 165] | ≤ 0.01 | 
18 | > 75 | ○ |  | N#Cc1ccc(/C=C/C(=O)Nc2ccc(CNC(=O)c3cccnc3)cn2)cc1 [Compound 166] | ≤ 0.01 | 
19 | > 75 | ○ |  | O=C(/C=C/c1ccc(C(F)(F)F)cc1)Nc1ccc(CNC(=O)c2cccnc2)cn1 [Compound 167] | ≤ 0.01 | 
20 | > 50 | ○ |  | O=C(/C=C/c1ccc(OC(F)(F)F)cc1)Nc1ccc(CNC(=O)c2cccnc2)cn1 [Compound 168] | ≤ 0.01 | 
21 | > 75 | ○ |  | O=C(CCc1ccc(C(F)(F)F)cc1)Nc1ccc(CNC(=O)c2cccnc2)cn1 [Compound 169] | ≤ 0.01 | 
22 | > 50 | ○ |  | CCCCC(=O)N(C(=O)CCCC)c1ccc(CNC(=O)c2cccnc2)cn1 [Compound 171] | ≤ 0.01 | 
23 | > 10 | ○ |  | CC(C)C(=O)N(C(=O)C(C)C)c1ccc(CNC(=O)c2cccnc2)cn1 [Compound 172] | ≤ 0.01 | 
24 | > 75 | ○ |  | N#Cc1ccc(CCC(=O)Nc2ccc(CNC(=O)c3cccnc3)cn2)cc1 [Compound 173] | 0.01 to 0.1 | 
25 | > 75 |  | ≤ 7.00 | N#Cc1ccc(OCC(=O)Nc2ccc(CNC(=O)c3cccnc3)cn2)cc1 [Compound 174] | 0.01 to 0.1 | 
26 | > 75 |  | ≤ 7.00 | O=C(COc1cccc(C(F)(F)F)c1)Nc1ccc(CNC(=O)c2cccnc2)cn1 [Compound 175] | 0.01 to 0.1 | 
27 | > 75 |  | ≤ 7.00 | O=C(COc1ccc(C(F)(F)F)cc1)Nc1ccc(CNC(=O)c2cccnc2)cn1 [Compound 176] | 0.01 to 0.1 | 
28 | > 75 |  | ≤ 7.00 | O=C(Cc1ccc(OCc2ccccc2)cc1)Nc1ccc(CNC(=O)c2cccnc2)cn1 [Compound 177] | 0.01 to 0.1 | 
29 | > 75 |  | ≤ 7.00 | O=C(COc1ccc(OCc2ccccc2)cc1)Nc1ccc(CNC(=O)c2cccnc2)cn1 [Compound 178] | 0.01 to 0.1 | 
30 | > 75 | ○ |  | Cc1ccc(/C=C/C(=O)Nc2ccc(CNC(=O)c3cccnc3)cn2)cc1 [Compound 179] | ≤ 0.01 | 
31 | > 75 |  | ≤ 7.00 | COc1ccc(/C=C/C(=O)Nc2ccc(CNC(=O)c3cccnc3)cn2)cc1 [Compound 180] | ≤ 0.01 | 
32 | > 75 |  | ≤ 7.00 | CC(C)(C)CC(=O)Nc1ccc(CNC(=O)c2cccnc2)cn1 [Compound 182] | ≤ 0.01 | 
33 | > 50 |  | ≤ 7.00 | CC#CC(=O)Nc1ccc(CNC(=O)c2cccnc2)cn1 [Compound 183] | 0.01 to 0.1 | 
34 | > 50 | ○ |  | O=C(C#Cc1ccccc1)Nc1ccc(CNC(=O)c2cccnc2)cn1 [Compound 184] | 0.01 to 0.1 | 
35 | > 25 | ○ |  | O=C(NCCCOCCOCCCNC(=O)c1cnc2ccccc2c1)c1cccnc1 [Compound 185] | 0.1 to 1 | 
36 | > 25 | ○ |  | O=C(NCCCOCCOCCCNC(=O)c1cccnc1)c1ccccc1 [Compound 186] | 0.01 to 0.1 | 
37 | > 25 | ○ |  | O=C(NCCCOCCOCCCNC(=O)c1ccc2ccccc2c1)c1cccnc1 [Compound 187] |  | C (0.1 µM < C ≤ 1 µM)
